According to patent publication US20090196829A1, “MRI CONTRAST AGENTS AND RELATED METHODS OF USE” (Northwestern University, priority 2008, published 2009):
“And” between values parts separate entries of the source, which are not always exact repeats. Equal entries are not always repeated.

Key:
[1] = at 64 MHz; cited from earlier work
[2] = T1 measurement and relaxivity of agents in solution, MR phantoms at 4.7T, 200 MHz; assay type: physicochemical; conditions: nanopure water, per Gd
Method: In experiments conducted during the course of development of the present invention, MR phantoms were imaged using a 4.7T, 200 MHz Bruker Biospec MR Imager with decreasing concentrations of 5, 6 and Gd-DOTA as indicated in FIG. 2A. T1 measurements were obtained and relaxivities were calculated for each compound using the T1 data. Relaxivities for 5, 6 and Gd-DOTA were calculated to be 5.3, 5.1, and 1.0 mM^−1 s^−1 at 200 MHz respectively. At high magnetic field strengths there remained a 5 fold increase in relaxivity per Gd(III) which indicated a 31-37 fold increase in molecular relaxivity.
6, 5 and DOTA-Gd were dissolved in nanopure water at decreasing concentrations and imaged in 1 mm capillary tubes. Concentrations (μM) were as follows from left to right for 6 (73.3, 54.9, 36.6, 22.0, 11.0, 0.0) for 5 (82.1, 61.6, 41.0, 24.6, 12.3, 0.0) and for DOTA-Gd (82.7, 62.0, 41.4, 24.8, 12.4, 0.0). T1 weighted (TR/TE=300/18.3 ms) spin-echo images were acquired at 200 MHz. […]
T1 values were determined using the following equation.
Where SI is the measured signal intensity for each TR, S0 is the signal intensity at infinity.
Relaxivities for each compound were calculated using the T1 data and gadolinium concentrations as determined by ICP-MS analysis. […]

NIH-3T3 cells = experiment: T1 measurement from T1 weighted cell pellet images of labeled cells; assay type: cell-based, mouse; conditions: NIH-3T3 cell pellets, 4 hours incubation
Method: In experiments conducted during the course of development of the present invention, 5 and 6 were used to label cells for MR imaging at equal molar concentrations of Gd(III) (FIG. 2B). […] NIH-3T3 cells were incubated for 4 hours at 37° C. and 5% CO2 in complete media containing 5, 6, and Gd-DOTA. The cells were rinsed 3 times in phosphate buffered saline and pelleted in 1 mm capillary tubes. Unlabeled cell pellets were used as a control. T1 values measured for 5, 6, Gd-DOTA and the control cell pellet were 2067.7, 2178.4, 3009.4, and 3480.3 msec respectively. […] Cell studies were done using NIH-3T3 cells cultured in Dulbecco's Modified Eagle's Media supplemented in 10% calf bovine serum and incubated at 37° C., 5% CO2. Cells were incubated with approximately equimolar concentrations of Gd for 4 hours in a 6 well plate. The cells were rinsed 2× with PBS and trypsinized. In 1.5 mL tubes, the cells were fixed for 15 min in 10% buffered neutral formalin and rinsed 2× in PBS. The cells were then pelleted in flame sealed 1 mm capillary tubes. T1 weighted (TR/TE=800/18.3 ms) spin-echo images were acquired at 200 MHz. T1 measurements were obtained by collecting a series of images using a standard spin-echo sequence with a TE of […] and a series of TR (91.5, 200, 300, 400, 500, 750, 1200, 2500, 5000, 10000), 6 signal averages, FOV 2×2 cm, collected into a matrix of 256×128.

## CNC[C@H](O)[C@@H](O)[C@H](O)[C@H](O)CO.O=C([O-])CN1CCN(CC(=O)[O-])CCN(CC(=O)O)CCN(CC(=O)[O-])CC1.[Gd+3] [Dotarem]
[1]
  relaxivity: 3.4 mM⁻¹ s⁻¹

## O=C([O-])CN1CCN(CC(=O)[O-])CCN(CC(=O)O)CCN(CC(=O)[O-])CC1.[Gd+3] [Gd-DOTA]
[2]
  Relaxivity (linear regression of 1/T1 vs. Gd concentration): 1.0 mM⁻¹ s⁻¹
NIH-3T3 cells; approximately equimolar Gd(III) (7.80, 8.95, 9.00 mM Gd), 200 MHz
  T1: 3009.4 ms and 3009.44 ms
NIH-3T3 cells; vs unlabeled control pellet
  % difference from control (T1): 13.53%
